# Test results reported in publication PMC7640639 (Journal of medicinal chemistry, 2019).
# Where two headings read alike, the source gives them in different places.
# Experiments:
# hAChE = hAChE (Homo sapiens, UniProt P22303); type: biochemical
# [1] = molecular target: hAChE-induced Aβ40 aggregation (Homo sapiens, UniProt P22303); type: biochemical; details: [I] = 100 μM; Aβ40/hAChE 100:1
# Aβ42 = Aβ42 (Homo sapiens, UniProt P05067); experiment: Inhibition of Aβ42 self-aggregation, thioflavin T fluorescence assay; type: biochemical; details: 50 μM inhibitor, 50 μM Aβ42 (1:1)
# Aβ42, sequence (P05067 672-713): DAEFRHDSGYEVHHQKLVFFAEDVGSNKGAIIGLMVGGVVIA
# HT-22 cells = experiment: Neuroprotection against glutamate-induced oxidative stress in HT-22 cells; type: cell-based, mouse
# hCB2R [2] = molecular target: T1, hCB2R (Homo sapiens, UniProt P34972); details: calcium mobilization
# T1 sequence (P34972 whole entry): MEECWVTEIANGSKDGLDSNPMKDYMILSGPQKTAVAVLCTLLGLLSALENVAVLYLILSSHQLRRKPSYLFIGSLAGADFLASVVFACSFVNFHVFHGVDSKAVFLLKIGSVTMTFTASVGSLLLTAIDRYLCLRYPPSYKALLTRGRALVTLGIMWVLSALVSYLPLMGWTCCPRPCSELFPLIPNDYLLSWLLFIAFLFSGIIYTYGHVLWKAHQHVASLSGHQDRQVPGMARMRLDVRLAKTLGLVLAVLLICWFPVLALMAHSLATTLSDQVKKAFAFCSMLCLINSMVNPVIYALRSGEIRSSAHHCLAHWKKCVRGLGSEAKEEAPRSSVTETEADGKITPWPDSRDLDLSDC
# hCB1R = hCB1R (Homo sapiens, UniProt P21554); details: CHO-K1 cells, hCB1 and Gαq16
# hCB1R, sequence (P21554 whole entry): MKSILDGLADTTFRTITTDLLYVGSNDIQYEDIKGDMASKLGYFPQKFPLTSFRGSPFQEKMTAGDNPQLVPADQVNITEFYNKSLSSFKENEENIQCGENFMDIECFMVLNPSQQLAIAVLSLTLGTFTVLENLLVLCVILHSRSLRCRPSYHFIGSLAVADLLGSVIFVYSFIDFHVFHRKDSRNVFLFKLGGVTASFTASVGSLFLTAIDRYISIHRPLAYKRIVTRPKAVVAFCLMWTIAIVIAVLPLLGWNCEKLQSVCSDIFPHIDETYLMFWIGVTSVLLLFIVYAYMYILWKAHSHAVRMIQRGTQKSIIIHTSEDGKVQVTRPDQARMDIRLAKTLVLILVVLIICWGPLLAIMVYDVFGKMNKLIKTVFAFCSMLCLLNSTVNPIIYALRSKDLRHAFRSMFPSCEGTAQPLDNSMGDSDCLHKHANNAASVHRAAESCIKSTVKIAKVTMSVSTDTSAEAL
# [3] = tested on: U266 myeloma cells (cAMP-regulated MIF and STAT-3 genes, hCB2R)
# [4] = tested on: Aβ25–35-induced learning impairments in mice; details: mouse, in vivo, ip
# liver = details: mouse, in vivo, ip, 3 mg/kg
# μ-opioid receptor (MOR) = μ-opioid receptor (MOR) (Homo sapiens, UniProt P35372)
# μ-opioid receptor (MOR), sequence (P35372 whole entry): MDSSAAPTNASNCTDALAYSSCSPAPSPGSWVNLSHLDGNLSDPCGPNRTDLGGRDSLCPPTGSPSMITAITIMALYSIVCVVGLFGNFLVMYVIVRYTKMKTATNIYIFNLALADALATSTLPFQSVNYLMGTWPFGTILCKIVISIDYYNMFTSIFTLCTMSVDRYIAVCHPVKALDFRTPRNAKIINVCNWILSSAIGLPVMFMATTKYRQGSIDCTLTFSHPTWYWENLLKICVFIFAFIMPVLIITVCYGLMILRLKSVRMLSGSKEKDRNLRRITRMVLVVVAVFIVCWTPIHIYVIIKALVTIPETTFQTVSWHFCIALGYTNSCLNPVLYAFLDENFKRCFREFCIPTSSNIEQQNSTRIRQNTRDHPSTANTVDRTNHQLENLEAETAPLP
# hCB2R [5] = molecular target: T1, hCB2R
# [6] = tested on: murine microglial cell line N9
# [7] = HT-22 cells, 5 mM glutamate, 24 h, MTT
# hAChE-induced Aβ40 aggregation, sequence (P22303 32-614): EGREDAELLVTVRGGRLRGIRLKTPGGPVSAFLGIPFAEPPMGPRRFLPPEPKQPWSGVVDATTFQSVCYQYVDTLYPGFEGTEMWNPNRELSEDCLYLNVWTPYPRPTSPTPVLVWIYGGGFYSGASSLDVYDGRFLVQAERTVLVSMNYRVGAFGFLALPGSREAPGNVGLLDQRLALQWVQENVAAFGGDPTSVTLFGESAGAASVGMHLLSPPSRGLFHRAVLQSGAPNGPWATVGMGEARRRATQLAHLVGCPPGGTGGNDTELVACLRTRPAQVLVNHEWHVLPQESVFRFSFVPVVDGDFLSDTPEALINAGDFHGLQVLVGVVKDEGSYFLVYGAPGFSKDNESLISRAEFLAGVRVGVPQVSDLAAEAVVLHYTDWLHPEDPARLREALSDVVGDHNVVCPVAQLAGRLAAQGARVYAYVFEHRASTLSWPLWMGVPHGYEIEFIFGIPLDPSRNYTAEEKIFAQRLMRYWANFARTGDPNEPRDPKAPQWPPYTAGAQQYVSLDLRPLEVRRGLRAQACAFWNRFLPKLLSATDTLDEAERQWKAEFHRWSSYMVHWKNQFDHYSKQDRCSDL
# hAChE, sequence (P22303 32-614): as above
smiles,measurement,setting,value
"CCOc1ccc(Cc2nc3cc(C(=O)N(CC)CC)ccc3n2CCCCCCNc2c3c(nc4ccccc24)CCCC3)cc1 [3e, 2-(4-Ethoxybenzyl)-N,N-diethyl-1-(6-((1,2,3,4-tetrahydroacndin-9-yl)amino)hexyl)-1H-benzo[d]imidazole-5-carboxamide]","Ki′ (inhibition constant for the enzyme-substrate-inhibitor complex), in words",hAChE,submicromolar range
same,inhibition of hAChE-induced Aβ40 aggregation (in words),[1],significantly reduce the proaggregating action of hAChE
same,inhibition of Aβ42 self-aggregation (in words),Aβ42,strongly inhibited
same,neuroprotective behavior (in words),HT-22 cells; [7],low neuroprotective behavior
same,behaviour at hCB2R (in words),hCB2R [2],partial agonists
same,activity at hCB1R (in words),hCB1R,devoid of activity
same,MIF and STAT-3 gene expression compared to vehicle,[3],decreased expression of both genes
same,"most effective dose, complete prevention of Aβ25–35 impairments in both tests",[4],0.3 mg/kg
"CCOc1ccc(Cc2nc3cc(C(=O)NCCCCNc4c5c(nc6ccccc46)CCCC5)ccc3n2CCC(C)C)cc1 [4c, 2-(4-Ethoxybenzyl)-1-isopentyl-N-(4-((1,2,3,4-tetrahydroacridin-9-yl)amino)butyl)-1H-benzo[d]imidazole-5-carboxamide]",behaviour at hCB2R (in words),hCB2R [2],partial agonists
same,activity at hCB1R (in words),hCB1R,devoid of activity
same,MIF and STAT-3 gene expression compared to vehicle,[3],decreased expression of both genes
"CCOc1ccc(Cc2nc3cc(C(=O)NCCSSCCNc4c5c(nc6ccccc46)CCCC5)ccc3n2CCC(C)C)cc1 [compound 8, 2-(4-Ethoxybenzyl)-1-isopentyl-N-(2-((2-((1,2,3,4-tetrahydroacri-din-9-yl)amino)ethyl)disulfaneyl)ethyl)-1H-benzo[d]imidazole-5-carboxamide]",inhibition of hAChE-induced Aβ40 aggregation (in words),[1],not able to significantly inhibit
same,inhibition of Aβ42 self-aggregation (in words),Aβ42,strongly inhibited
same,neuroprotection at 5 μM (in words),"HT-22 cells; HT-22 cells, 5 mM glutamate, 5 μM compound",neuroprotection comparable to the positive control quercetin at 25 μM
same,concentration showing neuroprotection,HT-22 cells; [7],≥ 1 µM
same,"most effective dose, complete prevention of Aβ25–35 impairments in both tests",[4],0.3 mg/kg
same,necrosis positive/specimen,liver,8/11
same,necrosis reported area %,liver,5–50%
"CCOc1ccc(Cc2nc3cc(C(=O)N(CC)CC)ccc3n2CCCCCNc2c3c(nc4ccccc24)CCCC3)cc1 [3d, 2-(4-Ethoxybenzyl)-N,N-diethyl-1-(5-((1,2,3,4-tetrahydroacridin-9-yl)amino)pentyl)-1H-benzo[d]imidazole-5-carboxamide]",neuroprotective behavior (in words),HT-22 cells,none
same,necrosis positive/specimen,liver,5/6
same,necrosis reported area %,liver,5–15%
"CCOc1ccc(Cc2nc3cc(C(=O)NCCCCCCNc4c5c(nc6ccccc46)CCCC5)ccc3n2CCC(C)C)cc1 [4e, 2-(4-Ethoxybenzyl)-1-isopentyl-N-(6-((1,2,3,4-tetrahydroacridin-9-yl)amino)hexyl)-1H-benzo[d]imidazole-5-carboxamide]",affinity at the μ-opioid receptor (in words),μ-opioid receptor (MOR),significant affinity
Cc1c(C(=O)NN2CCCCC2)nn(-c2ccc(Cl)cc2Cl)c1-c1ccc(Cl)cc1 [Rimonabant],"[3H]CP 55,940 displ. @10 μM hCB2R",hCB2R [5],4%
"CCOc1ccc(Cc2nc3cc(C(=O)NCCNc4c5c(nc6ccccc46)CCCC5)ccc3n2CCC(C)C)cc1 [4a, 2-(4-Ethoxybenzyl)-1-isopentyl-N-(2-((1,2,3,4-tetrahydroacridin-9-yl)amino)ethyl)-1H-benzo[d]imidazole-5-carboxamide]",affinity at the μ-opioid receptor (in words),μ-opioid receptor (MOR),significant affinity
same,IL1β release and iNOS expression (M1 markers),[6],significantly decrease
same,NO release / nitrite accumulation,[6],reduced
same,TREM2 and TGFβ2 expression (M2 markers),[6],not reduced
same,"most effective dose, complete prevention of Aβ25–35 impairments in both tests",[4],1 mg/kg
same,necrosis positive/specimen,liver,6/9
same,necrosis reported area %,liver,5–10%
"CCOc1ccc(Cc2nc3cc(C(=O)NCCCNc4c5c(nc6ccccc46)CCCC5)ccc3n2CCC(C)C)cc1 [4b, 2-(4-Ethoxybenzyl)-1-isopentyl-N-(3-((1,2,3,4-tetrahydroacridin-9-yl)amino)propyl)-1H-benzo[d]imidazole-5-carboxamide]",inhibition of Aβ42 self-aggregation (in words),Aβ42,quite weak
